We go through 36 molecules from publication PMC10065799, “High-throughput profiling of sequence recognition by tyrosine kinases and SH2 domains using bacterial peptide display” (eLife, 2023).

In test [1] the test system is EPHB1 kinase domain. The experiment in a line: pTyr-Var library bacterial peptide display kinase screen (enrichment scores). The format is biochemical, human. Conditions: for Screen: sheet EPHB1, effect of the variant peptide relative to its reference peptide in the pTyr-Var library screen (enrichment scores); for Screen (variant relative to reference peptide, measured in the pTyr-Var library screen): sheet "EPHB1", variant seq vs reference seq, bacterial peptide display enrichment.

Test [2] deals with Fer kinase domain. The test is described as above. The class given is biochemical, mouse. Conditions: sheet "Fer".
The test system of test [3] is EPHB2 kinase domain. Described as above. The class given is biochemical, human. As to conditions: sheet EPHB2.
Test [4] has as its target T1, c-Src kinase domain (Homo sapiens, UniProt P12931). The test is described as above. Conditions: sheet "Src". The format is biochemical.
Test [5] has as its target T2, c-Abl kinase domain (Mus musculus, UniProt P00520).
T2 sequence (P00520 242-493 limits assumed): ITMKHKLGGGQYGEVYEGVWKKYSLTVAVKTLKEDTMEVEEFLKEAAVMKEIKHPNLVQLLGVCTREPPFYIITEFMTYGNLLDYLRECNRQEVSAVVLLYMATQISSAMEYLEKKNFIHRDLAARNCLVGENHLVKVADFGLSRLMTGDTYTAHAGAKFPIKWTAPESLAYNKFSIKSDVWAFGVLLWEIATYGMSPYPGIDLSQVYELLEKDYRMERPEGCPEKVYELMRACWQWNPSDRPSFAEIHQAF
The experiment in a line: RP-HPLC assay to measure peptide phosphorylation kinetics. As to conditions: purified peptide substrate. The class given is biochemical.

Test [6] addresses T1, c-Src kinase domain. The description is as above. As to conditions: purified peptide substrate. The class given is biochemical.
For test [7], the target named is T2, c-Abl kinase domain. The experiment in a line: pTyr-Var library bacterial peptide display kinase screen (enrichment scores). The class given is biochemical.
The target in test [8] is mouse c-Abl kinase domain (residues 232-502) (mouse) (UniProt P00520).
Chain of mouse c-Abl kinase domain (residues 232-502) (mouse) (P00520 232-502): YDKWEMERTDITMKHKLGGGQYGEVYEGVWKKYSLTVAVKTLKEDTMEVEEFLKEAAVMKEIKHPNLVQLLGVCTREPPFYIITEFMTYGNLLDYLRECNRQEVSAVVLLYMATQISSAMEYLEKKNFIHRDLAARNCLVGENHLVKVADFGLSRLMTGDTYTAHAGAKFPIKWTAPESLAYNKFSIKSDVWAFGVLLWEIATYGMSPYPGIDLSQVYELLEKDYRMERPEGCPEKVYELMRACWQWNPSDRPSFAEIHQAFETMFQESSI
Setting [9] is: value of the variant peptide against its reference peptide in the pTyr-Var library screen with Fer.
The mark [10] stands for this setting: effect of variant peptide relative to its reference peptide in the pTyr-Var library screen (enrichment scores).
Setting [11] is: variant peptide versus its reference peptide in the pTyr-Var library screen.
The mark [12] stands for this setting: effect of the variant peptide relative to its reference peptide in the pTyr-Var library screen.
[13] abbreviates: variant peptide relative to its reference peptide, pTyr-Var library screen enrichment.
The mark [14] stands for this setting: effect of the variant relative to its reference peptide in the pTyr-Var library screen.
The mark [15] stands for this setting: fig5-data2, sheet "Abl", Screen for the variant/reference peptide pair, pTyr-Var library.

AAAAVYTFLPD [MYORG_Y36_M35V]: the Screen in test [1] was found to be 0.3532; in test [2] (setting [9]) it was 0.8509; in test [3] (setting [10]) it was 0.71; in test [4] (setting [11]), 0.6423.
ADCRFYTFPQM [GAMT_Y223_A224T_YF]: the Screen was -1.572 in test [1], -1.641 in test [2] (setting [9]) and -2.189 in test [3] (setting [10]).
For ASENVYVNTAH [CTSC_Y150_I153T], the Screen in test [1] is on record as -1.518; in test [2] (setting [9]), -2.892; in test [4] (setting [12]) it was -1.46.
“Ac-GNLLIYTELGK-NH2 [HGD_Y166_F169L, pTyr-Var library variant peptide, non-canonical c-Abl substrate]”: the Screen was 1.156 in test [1], 1.177 in test [3] (setting [10]) and -0.3242 in test [4] (setting [12]). In addition, the “Phosphorylation Rate” value in test [5] was determined as 0.238 s⁻¹.
In the case of Ac-IGEGTYGQVFK-NH2 [CDK13_Y716_YF], the “Phosphorylation Rate” value in test [6] came to 3.100 s⁻¹.
Take Ac-IGEGTYGTVFK-NH2 [CDK5-Y15]: the “Phosphorylation Rate” value in test [5] is 0.085 s⁻¹; in test [6] it was 2.587 s⁻¹.
Molecule “Ac-IGEGTYRQVFK-NH2 [CDK13_Y716_G717R_YF, pTyr-Var library variant phosphosite peptide]” came in with a Screen in test [4] (setting [12]) of -4.535. In test [6], the “Phosphorylation Rate” value is 0.195 s⁻¹.
For the molecule CFSSEYHFVGG [CTSC_Y345_Y340C_YF], the Screen in test [1] is on record as -0.7957; in test [3] (setting [10]), -0.9567; in test [4] (setting [12]), -0.6697.
CPSLLYSPVSS [CAMKK2_Y128_P127L]: the Screen was determined as 3.226 in test [1], 2.071 in test [2] (setting [9]), 2.723 in test [3] (setting [10]) and 2.179 in test [4] (setting [12]).
DNEALYDICFC [TUBB3_Y208_R213C]: the “Screen (variant relative to reference peptide, measured in the pTyr-Var library screen)” value in test [1] is on record as -0.1227. Besides, the Screen in test [2] (setting [13]) was 0.2993; in test [3] (setting [14]), 0.1536; in test [4] (setting [11]), 0.09389.
For DNEALYDTCFR [TUBB2B_Y208_I210T], in test [1], the “Screen (variant relative to reference peptide, measured in the pTyr-Var library screen)” value is given as -0.7019. The Screen in test [2] (setting [13]) is -0.2841; in test [3] (setting [14]), -0.7919; in test [4] (setting [11]), -0.1626.
As for DPLLTYWFPPK [LMNA_Y481_R482W], the results for the Screen in test [1], in test [3] (setting [10]) and in test [4] (setting [12]) were 4.875, 5.36 and 3.284, respectively.
As for FNSLLYQVPTS [CALCOCO2_Y358_P357L], the Screen came out at 4.751 in test [1], 3.519 in test [2] (setting [9]), 5.149 in test [3] (setting [10]) and 2.72 in test [4] (setting [12]).
With HMEAVYIDIAD [PITPNA_Y140_V136M], the Screen in test [1] is reported as 1.841; in test [2] (setting [9]), 1.696; in test [3] (setting [10]) it was 1.927; in test [4] (setting [11]) it was 0.9488.
Molecule HRGCLYLAIEF [TEK_Y899_Y897C_YF] gave a Screen in test [3] (setting [10]) of 0.2155.
Consider ITNHIYTWVDP [DFNB31_Y234_V229I], for which the Screen is given as 0.06659 in test [1], -0.03067 in test [2] (setting [9]), -0.0087 in test [3] (setting [10]) and 0.3882 in test [4] (setting [12]).
On to ITNLLYHVVGG [GBA_Y412_W417G], for which the Screen was 0.07416 in test [1], -1.01 in test [2] (setting [9]), -0.0356 in test [3] (setting [10]) and -0.2777 in test [4] (setting [12]).
With ITSLLYHVVGW [GBA_Y412_N409S], the Screen in test [1] is reported as -0.08421; in test [2] (setting [9]), 0.08882; in test [3] (setting [10]) it was -0.2083; in test [4] (setting [12]) it was -0.3669.
In the case of KCCCIYEKPRS [PPP1R11_Y64_A69S], the figures for the Screen in test [7] (setting [15]), in test [2] (setting [9]) and in test [4] (setting [11]) were 0.7147, -0.1382 and -0.2424, respectively.
As for KMKGDYFCFLA [YWHAG_Y130_R132C_YF], in test [1], the “Screen (variant relative to reference peptide, measured in the pTyr-Var library screen)” value is on record as 1.698. The figures for the Screen in test [3] (setting [14]) and in test [4] (setting [11]) were 1.601 and 0.4816, respectively.
LDAFIYDAALL [GRIN2A_Y730_V734L]: the Screen is recorded as -0.2525 in test [1], -0.3557 in test [2] (setting [9]), -0.3341 in test [3] (setting [10]) and 0.1286 in test [4] (setting [12]).
Regarding LEDPMYDIIRD [RP9_Y142_H137L], the Screen was determined as 0.4802 in test [1], 0.5422 in test [2] (setting [13]), 0.7516 in test [3] (setting [10]) and 0.5395 in test [4] (setting [11]).
Turning to LEQGEYALRSH [HADHB_Y244_D242G], the Screen in test [3] (setting [10]) was -1.376.
In the case of LHNLFYQLEAE [PKP2_Y616_S615F], the Screen in test [2] (setting [9]) came to 1.632; in test [3] (setting [10]) it was 1.672; in test [4] (setting [11]) it was 4.082.
On to NAGDFYDLFGG [PTPN11_Y63_T59A_YF], for which the figures for the Screen in test [7] (setting [15]), in test [2] (setting [13]) and in test [4] (setting [11]) were -0.2092, 0.394 and 0.4386, respectively.
As to NNDLCYWVLEL [IARS1_Y434_P437L], the Screen in test [1] is on record as -1.633; in test [3] (setting [10]), -2.3; in test [4] (setting [12]), 1.285.
As to NNHGNYIVLLG [ETFDH_Y172_R175L], the figures for the Screen in test [1] and in test [3] (setting [10]) were 3.773 and 2.804, respectively.
As for PKSWNYELPAT [PROM1_Y34_A31S], the results for the Screen in test [1] and in test [3] (setting [10]) were 0.9154 and 0.6095, respectively.
PLDGEYFTPQI [TP53_Y327_L330P]: the “Screen (variant relative to reference peptide, measured in the pTyr-Var library screen)” value in test [1] is listed as -0.3708. Further, the figures for the Screen in test [3] (setting [14]) and in test [4] (setting [11]) were 0.1464 and -3.182, respectively.
Consider PNAFIYVVQLP [L1CAM_Y420_A415P_YF], for which the Screen in test [7] (setting [15]) is 0.6294; in test [3] (setting [10]), 0.851.
Regarding RRIHSYRGFLW [VHL_Y112_H115Y_YF], in test [1], the “Screen (variant relative to reference peptide, measured in the pTyr-Var library screen)” value is on record as -2.336. Moreover, the Screen in test [7] (sheet "Abl", effect of variant peptide relative to its reference peptide in pTyr-Var library screen (enrichment)) is on record as -4.49; in test [3] (setting [14]) it was -0.9029; in test [4] (setting [11]), -2.75.
In the case of SNTFLYQLVFD [EXO1_Y284_N279S], the Screen is 0.05167 in test [1], -0.008577 in test [2] (setting [9]), -0.053 in test [3] (setting [10]) and -0.03965 in test [4] (setting [12]).
On the same counts, the results for TLSGIYQFNIA [FOXL2_Y81_I84N_YF] are -4.223, -1.015, -4.083 and -0.3308.
On to TQNAVYSAANF [DDX5_Y535_G533A_YF], for which the Screen was 1.023 in test [1], 0.4164 in test [2] (setting [9]), 1.01 in test [3] (setting [10]) and 0.6379 in test [4] (setting [12]).
Take TTSQLYDAMPI [PDPK1_Y9_V12M]: the Screen is on record as -0.6854 in test [1], -0.6658 in test [2] (setting [9]), -1.368 in test [3] (setting [10]) and -0.9144 in test [4] (setting [11]).
As for Ac-GPDEPIYAVPPIKKKG-NH2 [Abl Consensus peptide Ac-…-NH2], the KM (μM) of phosphorylation, Michaelis-Menten analysis, ADP-Quest assay in test [8] came out at 6 µM.
